Results from patent US11091740B2, “Composition for inducing dedifferentiation into cancer stem cells comprising ribosome-activating inhibitor as active ingredient, cancer organoid culture method and anticancer drug screening platform based thereon” (priority 2016, dated 2021).

Key:
[1] = test system: Cancer stem cell cultured spheroid; assay: 5-FU response of cancer stem cell cultured spheroid, PI/AnnexinV flow cytometry; assay type: cell-based; settings: 5-FU 375 μM for 48 hours
Protocol: The drug effect close to human physiological activity can be confirmed by monitoring the anticancer drug response of heterogeneous cancer cells containing a plurality of cancer stem cells induced by the exposure of ribosome-inactivating stress. […] Cancer stem cell cultured spheroid were treated with 5-FU (375 μM) for 48 hours and apoptotic cells were quantified by flow cytometry using propidium iodide (PI) and AnnexinV-FITC (1:200) as markers. The number of apoptotic cells positive for both PI and AnnexinV for 5-FU was higher in the control (−) group, but the drug reactivity was better, but those in the general spheroid culture (DMSO) were decreased.

epithelial cancer cells = assay: Single versus repeated exposure to ribosome-inactivating stress, CD44/CD133 flow cytometry; assay type: cell-based; settings: for cancer stem cells (CD44 and CD133) after a first temporary exposure: exposed once for 24 hours, spheroid cultured in stem cell medium, sub-cultured three times; for CD44 and CD133 positive stem cell groups in chronic exposure: exposure in each subculture, total of 3 exposures
Protocol: To reconfirm that ribosome-inactivating stress (RIS1, RIS2) is a key factor for inducing the dedifferentiation of epithelial cancer cells, the cells were exposed to ribosome-inactivating stress once for 24 hours, spheroid cultured in a stein cell culture medium for 6 days. In the experimental groups which sub-cultured in three times; and sub-cultured while exposing to the ribosome-inactivating stress on the optimum medium for cancer stem cell in each subculture (total of 3 exposures), cancer stem cells were compared quantitatively by flow cytometry with CD44 and CD133 as the marker thereof.

colon cancer cell lines = assay: Spheroid culture with ribosome-inactivating stress exposure, CD44/CD133 flow cytometry; assay type: cell-based; settings: RIS-1 10 ng/mL or RIS-2 50 ng/mL pretreated for 6 hours, spheroid cultured 6 days, compared with control
Protocol: Colon cancer cell lines were purchased from ATCC (Manassas, USA), a cell line distribution company. Cells were maintained with RPMI medium supplemented with 10% (v/v) fetal bovine serum (FBS) and 5% mixed antibiotics (50 units/mL penicillin and […] streptomycin) (welgene, Daegu, South Korea) in a 5% CO2-humidified incubator at 37° C. […] First, the cultured spheroid cells were dissociated into single cells by trypsinization, washed with phosphate buffer solution, incubated with FITC-conjugated CD44 (BD pharmingen) and APC-conjugated CD133 (MACS, Miltenyi Biotec) antibodies for 15 min, and then the expression of CD44 and CD133 positive cells was analyzed by flow cytometry (Becton Dickinson FACS Canto Il BD Bioscience, San Jose, Calif., USA).

[2] = test system: Colorectal cancer cell lines; assay: Cell line-based cancer organoid, CD44 (+) cells by flow cytometry; settings: RIS-1 10 ng/mL or RIS-2 50 ng/mL pretreated for 6 hours, spheroid, organoid culture 12 days
Protocol: Colorectal cancer cell lines were pretreated with ribosome-inactivating stress, RIS-1 of 10 ng/mL or RIS-2 of 50 ng/mL for 6 hours to form spheroid. Cancer organoid is formed by using spheroid induced from cancer stem cells increased by the ribosome-inactivating stress. A cancer organoid culture technique was developed from cancer stem cells increased by ribosome-inactivating stress. 100 μl of a culture medium containing 200-400 spheroid cells of about 100 μm in size among the cultured spheroids was mixed with an equal amount of a ice-cold matrigel (BD #35424, USA) and divided as a dome in a 24-well culture dish preheated in the cell incubator. Organoid formation (changes in crypt-villus domain production, morphology and size changes, etc.) is monitored by filling the organoid culture medium (STEMCELLS) so as not to reach the cell-matrigel dome and incubating for 12 days (FIG. 7A). The final cultured organoid is tested by immunohistochemistry and flow cytometry. After washing with ice-cold PBS, the organoid was separated from the matrigel and fixed with 0.1% tritonX-100, 4% PFA and immunostained. E-cadherin, an epithelial cell factor, mucin-2, a goblet cell marker for differentiated intestinal cells and F-actin for confirming cell structure formation are examined to confirm the formation of an intestinal organoid (FIG. 7A). […]

[3] = test system: CMT-93 mouse colorectal cancer cell line; assay: Allograft of RIS-2 pretreated cancer cells, epithelial mesenchyme transition markers by immunohistochemistry; assay type: in vivo; settings: cells pretreated with RIS-2 50 ng/mL for 6 hours, subcutaneous in C57BL/6 mice, 5-FU i.p. on day 7, tumors excised 24 h later
Protocol: Cancer stem cells have been identified as a major cause of cancer progression, metastasis, recurrence, and resistance to anticancer drugs. In order to investigate the in vivo activity of cancer stem cells produced by the exposure to ribosome-inactivating stress, epithelial mesenchyme transition (EMT) phenomenon, which is an in vivo phenotype representing the characteristics of cancer stem cells was examined. The in vivo activity of cancer stem cells was determined by the degree of epithelial mesenchyme transition, which is verified by the decrease of E-cadherin, an epithelial cell marker and the increase of the protein expression of N-cadherin and vimentin, mesenchymal marker. For this purpose, in vivo experiment using allografts of cancer cells was performed. The CMT-93 mouse colorectal cancer cell line was cultured in DMEM (Welgene, Daegu, South Korea) supplemented with 10% (v/v) fetal bovine serum (FBS) and 5% mixed antibiotics (50 units/mL penicillin, […] streptomycin) in a 5% CO2, 37 humidified incubator at 37° C. CMT-93 cells (5×10^6) pretreated with RIS-2 (50 ng/mL) for 6 hours were resuspended with 200 μL of PBS and injected subcutaneously into a 14-week-old male C57BL/6 mice. Seven days later, […] anticancer drug 5-FU was intraperitoneally injected and tumors were excised surgically 24 h later. Solid tumors were obtained by immunohistochemistry using E-cadherin (1:200, BD Science), N-cadherin (1:200, BD Science), vimentin (1:200, Cell signaling) specific antibodies. The excised solid tumors were fixed in 4% paraformaldehyde, embedded in paraffin, and sectioned to prepare slice slide specimens. After dehydration and antibody binding, spatial expression of protein expression in tissues was investigated by 3,3-diaminobenzidine (DAB) substrate reaction and relative expression of DAB versus hematoxylin-positive cells was quantified by a tissue analysis software (Histo Quest, TissueGnotics).

Row | Compound | number of apoptotic cells positive for both PI and AnnexinV ([1]; control (−) group) | number of apoptotic cells positive for both PI and AnnexinV ([1]; general spheroid culture (DMSO)) | drug reactivity (apoptotic cells) ([1]; spheroid containing cancer stem cell group induced by ribosome-inactivating stress) | cancer stem cells (CD44 and CD133) after a first temporary exposure (epithelial cancer cells) | CD44 and CD133 positive stem cell groups in chronic exposure (epithelial cancer cells) | CD44 and CD133 positive cells representing cancer stem cell group (colon cancer cell lines) | CD44 (+) cancer stem cell group in cultured cancer organoid [2] | epithelial cell marker E-cadherin in solid tumors [3] | mesenchymal cell marker N-cadherin in solid tumors [3] | mesenchymal cell marker vimentin protein in solid tumors [3]
1 | O=c1[nH]cc(F)c(=O)[nH]1 [5-FU, fluorouracil] | higher | decreased | further reduced | – | – | – | – | – | – | –
2 | COc1ccc(C[C@H]2NC[C@H](O)[C@H]2OC(C)=O)cc1 [RIS-1, anisomycin] | – | – | – | maintained continuously | increased significantly | significantly increased | significantly increased | – | – | –
3 | CC1=C[C@H]2O[C@@H]3[C@H](O)C[C@](C)([C@@]2(CO)[C@H](O)C1=O)[C@]31CO1 [RIS-2, deoxynivalenol] | – | – | – | maintained continuously | increased significantly | significantly increased | significantly increased | decreased | significantly increased | significantly increased
